Source: patent publication US12295997B2, “Prostate neoantigens and their uses” (Janssen Biotech, Inc., priority 2020, dated 2025)

How the values were obtained:
HLA-B*08:01 = HLA-B*08:01 (Homo sapiens, UniProt P01889, A93T/A95T/D138N/E176V/E187T/K202T/Q94N/R180D/S35A/V36M/Y33D/Y91F); test: In vitro binding of neoantigens to class I MHC (UV peptide exchange, HLA class I ELISA)
Protocol: (§1) The 9 mer peptides identified by bioinformatics analysis were analyzed for their binding propensities to 6 common HLA class I alleles (HLA-A*01:01, A*02:01, A*03:01, A*24:02, B*07:02, B*08:01). The principle of the method is briefly described below and consists of two parts, one involving exchange of peptide with a positive control induced by Ultraviolet (UV) radiation, and the second is an enzyme immunoassay to detect stable HLA-peptide and empty HLA complexes.
(§2) HLA-bound peptides are critical for the stability of the HLA complex. A conditional HLA class I complex was stabilized by an UV-labile peptide utilizing a different peptide (Pos) for each HLA (Pos: HLA-A*01:01: […](SEQ ID NO: 409), HLA-A*02:01: […] (SEQ ID NO: 410), HLA-A*03:01: […] (SEQ ID NO: 411), HLA-A*24:02: […] (SEQ ID NO: 412), HLA-B*07:02: […] (SEQ ID NO: 413), HLA-B*08:01: […] (SEQ ID NO: 414), which could be cleaved by UV irradiation when bound to the HLA molecule. Upon cleavage, the resulting peptide fragments dissociated from the HLA class I complex since their length was insufficient to bind stably to HLA. Under the conditions in which peptide cleavage was performed (neutral pH, on melting ice), the peptide-free HLA complex remained stable.
(§3) The exchange efficiency between the peptide of interest and Pos was analyzed using an HLA class I ELISA. The combined technologies allowed the identification of ligands for an HLA molecule of interest which are potentially immunogenic.
(§4) Exchange control peptide Pos was a high affinity binder to the relevant HLA class I allele while exchange control peptide Neg was a non-binder. The UV control represented UV-irradiation of conditional HLA class I complex in the absence of a rescue peptide.
(§5) The HLA class I ELISA is an enzyme immunoassay based on the detection of beta2-microglobulin (B2M) of (peptide-stabilized) HLA class I complexes. To this end streptavidin was bound onto polystyrene microtiter wells. After washing and blocking, HLA complex present in exchange reaction mixtures or ELISA controls was captured by the streptavidin on the microtiter plate via its biotinylated heavy chain. Non-bound material was removed by washing. Subsequently, horseradish peroxidase (HRP)-conjugated antibody to human B2M was added. The HRP-conjugated antibody binds only to an intact HLA complex present in the microtiter well because unsuccessful peptide exchange results in disintegration of the original UV-sensitive HLA complex upon UV illumination. In the latter case B2M was removed during the washing step. After removal of non-bound HRP conjugate by washing, a substrate solution was added to the wells. A coloured product formed in proportion to the amount of intact HLA complex present in the samples. After the reaction was terminated by the addition of a stop solution, absorbance was measured in a microtiter plate reader. The absorbance was normalized to the absorbance of an exchange control peptide (represents 100%). Suboptimal HLA binding of peptides with a moderate to low affinity for HLA class I molecules can also be detected by this ELISA technique (Rodenko, B et al. (2006) Nature Protocols 1: 1120-32).
(§6) Peptides that had 10% or greater exchange efficiency in one of the 6 HLA alleles were considered for further immunogenicity testing and analysis.
(§7) Binding of select neoepitopes to HLA-A*01:01, HLA-A*02:01, HLA-A*03:01, HLAA*24:02, HLAAB*07:02 and HLA-B*08:01 was evaluated using the assay described in Example 1. […] As a criterion for further evaluation, peptides with an exchange rate of at least 10% with the corresponding Pos peptide for at least one of the 6 HLA alleles that we considered for further evaluation. The exchange rates with the allele specific Pos peptides, of the 24 neoantigens so identified are summarized below in Table 17. Higher percentages correspond to stronger binding to the HLA allele. […]

[1] = system: CD8+ and CD4+ T cells (autologous CD3+ Pan-T cells isolated from human normal PBMCs); test: Exogenous autologous normal donor restimulation assay (15-mer overlapping peptide pools on CD1c+ dendritic cells, TNFα/IFNγ flow cytometry); assay type: cell-based; settings: Table 25, 15-mer overlapping peptide pool; for Maximum Fold Change Over Background CD4+ cells: TNFα+IFNγ+ CD4+ T cells; for Maximum Fold Change Over Background CD4+ cells / Maximum Fold Change Over Background CD8+ cells: highest fold change over negative control across normal donors; for Maximum Fold Change Over Background CD8+ cells: TNFα+IFNγ+ CD8+ T cells; for Maximum Frequency of TNFα/IFNγ Double Positive CD4+ T cells / Maximum Frequency of TNFα/IFNγ Double Positive CD8+ T cells: highest frequency across normal donors
How it was run: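 Readout was intracellular TNFα/IFNγ flow cytometry on live CD3+ CD8+ and CD4+ cells after day-11 peptide restimulation. Stimulators were CD1c+ dendritic cells loaded with overlapping 15-mer peptide pools (2.5–10 μg/mL), irradiated, and cultured 12 days with autologous normal-donor Pan-T cells plus IL-15/IL-2. A response counted when ≥3-fold over DMSO control and at least 0.01%.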

[2] = system: CD8+ T cells in PBMCs from human patients with metastatic castrate-resistant prostate cancer; test: Patient PBMC restimulation assay (in vitro immunogenicity, TNFα/IFNγ intracellular flow cytometry); assay type: cell-based; settings: 9-mer peptide; for Maximum fold change over negative control: TNFα+IFNγ+CD8+ T cells, highest across PBMC donors evaluated; for Maximum frequency of TNFα^+IFNγ^+CD8^+ T cells (Percent): greatest frequency among all tested PBMC donors; for Immunogenic: patient PBMC restimulation
Protocol: PBMCs from human patients with metastatic castrate-resistant prostate cancer were thawed using media (RPMI 1640 supplemented with Glutamax, 10% HI FBS, and 1× Sodium Pyruvate). Cells were counted and plated in a 96 well round bottom microplate at a concentration of 250,000 viable cells per well. Lyophilized peptides were solubilized in 100% DMSO and diluted in media to 10 μg/mL. Neoantigen peptides were added in equal volume to PBMCs for a final concentration of 5 μg/mL. CEF Peptide Pool “Plus” (Cellular Technologies, Ltd.) was utilized as a positive control and DMSO at the same final concentration as the experimental peptides was utilized as a negative control. Human IL-15 (Peprotech) was added to all wells at final concentration of 10 ng/mL.
Plates were incubated at 37° C. (5% CO2) for a total of 13 days. Media was refreshed every 2 days with IL-15 (10 ng/mL final concentration) and IL-2 (R&D systems, 10 IU/mL final concentration). On day 12, PBMCs were re-stimulated with identical experimental peptides or controls, at same concentration as peptide stimulation on Day 1. After 1-hour incubation, protein Inhibitor Cocktail (eBioscience) was added to every well and plate was incubated overnight.
On day 13, cells were stained for intracellular flow cytometry analysis. The cells were washed with PBS and stained with Live/Dead Fixable Aqua Dead Cell stain (Thermo-Fisher). Following the live/dead stain, cells were blocked using Biotin-Free Fc Receptor Blocker (Accurate Chemical & Scientific Corp). Extracellular cellular flow panel ([…] per well in 50 μL) consisted of CD3 PerCP-Cy5.5 (Biolegend), CD4 BV421 (Biolegend), and CD8 APC-Cy7 (Biolegend). After extracellular staining, cells were fixed using Foxp3/fTranscription Factor Staining Buffer Set (eBioscience) and stained for intracellular proteins (1:50 dilution) using TNFα FITC (R&D Systems) and IFNγ BV785 (Biolegend). Cells were washed and resuspended in stain buffer and analyzed using a BD Celesta flow cytometer.
Flow cytometry cell staining analysis was completed using FlowJo v10. Cells were gated on live, singlet, CD3+ cells. The CD8+ T cells were analyzed for TNFα/IFNγ expression and the frequency of double positive TNFα/IFNγ CD8+ T cells was recorded. Responses were assessed to be positive when the frequency of double positive TNFα/IFNγ CD8+ T cells due to stimulation with an experimental peptide was increased greater than or equal to 2-fold over the DMSO only negative control for that patient. Peptides were analyzed in 1 to 7 patient samples.
The 9 mer fragments shown in Table 13 were assessed for their ability to activate T cells using the Patient PBMC restimulation assay described in Example 1 using TNFα and IFNγ production by CD8^+ T cells as a readout. Self-antigens shown in Table 15 were also used in the assays. […] PBMCs from ten patients were evaluated.

HLA-A*03:01 = HLA-A*03:01 (Homo sapiens, UniProt P04439); test: In vitro binding of neoantigens to class I MHC (UV peptide exchange, HLA class I ELISA); settings: 100% = same binding as positive control peptide
Protocol: as §1, §2, §3, §4, §5, §6
Binding of select neoepitopes to HLA-A*01:01, HLA-A*02:01, HLA-A*03:01, HLAA*24:02, HLAAB*07:02 and HLA-B*08:01 was evaluated using the assay described in Example 1. […] As a criterion for further evaluation, peptides with an exchange rate of at least 10% with the corresponding Pos peptide for at least one of the 6 HLA alleles that we considered for further evaluation. The exchange rates with the allele specific Pos peptides, of the 24 neoantigens so identified are summarized below in Table 17. Higher percentages correspond to stronger binding to the HLA allele.

HLA-A*01:01 = HLA-A*01:01 (Homo sapiens, UniProt P04439, A114D/A174V/A182V/D101N/D185E/E176A/E190D/L180R/Q94H/R68K/S129P/T187R/V100A/V91M/W191G); test: as above; settings: 100% = same binding as positive control peptide
Protocol: as §1, §2, §3, §4, §5, §6, §7

HLA-B*07:02 = HLA-B*07:02 (Homo sapiens, UniProt P01889); test: as above; settings: 100% = same binding as positive control peptide
Protocol: as §1, §2, §3, §4, §5, §6, §7

HLA-A*24:02 = HLA-A*24:02 (Homo sapiens, UniProt P04439, D101N/D140Y/D185E/E176V/E190D/F33S/G103R/G107R/I119L/I121M/I306V/K335N/L105A/L180Q/L300P/N151K/N90K/Q86E/Q94H/R106L/R138H/R89G/T104I/T345S/V100E/W191G/Y123F); test: as above; settings: 100% = same binding as positive control peptide
Protocol: as §1, §2, §3, §4, §5, §6, §7

HLA-A*02:01 = HLA-A*02:01 (Homo sapiens, UniProt P04439, D140Y/D185E/D98H/E176V/E277Q/G131W/G231S/I119V/I121R/I166T/I218V/L300P/L318F/N151K/N90K/P208A/P217A/Q86G/Q94H/R138H/R169H/T345S); test: as above; settings: 100% = same binding as positive control peptide
Protocol: as §1, §2, §3, §4, §5, §6, §7

Row | Substance | Maximum fold change over negative control [2] | Maximum frequency of TNFα^+IFNγ^+CD8^+ T cells (Percent) [2] | Immunogenic [2] | also measured
1 | 8 (QLIAMDSAI; listed as Homo sapiens) [Peptide 8] | – | – | – | Exch I (%) (HLA-B*08:01; Binding to HLA-B*08:01, UV peptide exchange, replicate I, Pos = 100): 8.0%; Exch II (%) (HLA-B*08:01; Binding to HLA-B*08:01, UV peptide exchange, replicate II, Pos = 100): 7.8%; Average % (HLA-B*08:01; Binding to HLA-B*08:01, average of Exch I and Exch II): 7.9%
2 | GVPGDSTRRAVRRMNTF (listed as Homo sapiens) [Neoantigen P16] | 65.82 | 4.620% | Yes | Maximum Fold Change Over Background CD4+ cells [1]: 2.44; Maximum Fold Change Over Background CD8+ cells [1]: 2.44; Maximum Frequency of TNFα/IFNγ Double Positive CD4+ T cells [1]: 0.039; Maximum Frequency of TNFα/IFNγ Double Positive CD8+ T cells [1]: 0.039
3 | NSKMALNSLNSIDDAQLTRIAPPRSHCCFWEVNAP (listed as Homo sapiens) [Neoantigen P35] | 2.67 | 0.064% | Yes | Maximum Fold Change Over Background CD4+ cells [1]: 3.47; Maximum Fold Change Over Background CD8+ cells [1]: 14.44; Maximum Frequency of TNFα/IFNγ Double Positive CD4+ T cells [1]: 0.03; Maximum Frequency of TNFα/IFNγ Double Positive CD8+ T cells [1]: 0.26
4 | P17 (GVPGDSTRRAVRRMNTF; listed as Homo sapiens) [Peptide P17] | – | 0.130% | Yes | Exchange rate with allele specific Pos peptide, HLA-A*03:01 (HLA-A*03:01): 3.8%; Exchange rate with allele specific Pos peptide, HLA-A*01:01 (HLA-A*01:01): 4.9%; Exchange rate with allele specific Pos peptide, HLA-B*07:02 (HLA-B*07:02): 38.7%; Exchange rate with allele specific Pos peptide, HLA-A*24:02 (HLA-A*24:02): 0.1%; Exchange rate with allele specific Pos peptide, HLA-B*08:01 (HLA-B*08:01; 100% = same binding as positive control peptide): 9%
5 | P27 (LHPQRETFTPRWSGANYWKLAFPVGAEGTFPAAATQRGVVRPA; listed as Homo sapiens) [Peptide P27] | 3.43 | 0.430% | Yes | –
6 | P37 (MAGGVLRRLLCREPDRDGDKGASREETVVPLHIGDPVVLPGIGQCYSALF; listed as Homo sapiens) [Peptide P37] | 3.13 | 1.160% | Yes | –
7 | P48 (VQPIARELYQFTFDLLI; listed as Homo sapiens) [Peptide P48] | – | 0.220% | Yes | Exchange rate with allele specific Pos peptide, HLA-A*03:01 (HLA-A*03:01): 4.4%; Exchange rate with allele specific Pos peptide, HLA-A*01:01 (HLA-A*01:01): 4.3%; Exchange rate with allele specific Pos peptide, HLA-B*07:02 (HLA-B*07:02): 12.8%; Exchange rate with allele specific Pos peptide, HLA-A*24:02 (HLA-A*24:02): 0.1%; Exchange rate with allele specific Pos peptide, HLA-A*02:01 (HLA-A*02:01): 99.3%
8 | P50 (QMAVIQYSCMGLMVFAM; listed as Homo sapiens) [Peptide P50] | 5.14 | 0.190% | Yes | –
9 | P59 (LHPDSGNMVENGCYLRR; listed as Homo sapiens) [Peptide P59] | 10.75 | 3.010% | Yes | –
10 | P77 (FFKRAAEGF) [Peptide P77] | 3.24 | 0.160% | Yes | –
